Experimental data: ChEMBL document CHEMBL3132815, “Design, synthesis and activities of 4/5-acyl-2-aminoimidazolyl analogues of oroidin for biofilm inhibition” (Medchemcomm, 2013)

system: Staphylococcus aureus; test: Antibiofilm activity against Staphylococcus aureus ATCC 35556 assessed as inhibition of biofilm formation at 50 ug/ml; format: functional; conditions: not given

Compound | inhibition at 50 µg/mL [%]
O=C(NCCC(=O)c1cnc2ncccn12)c1ccc[nH]1 | -1.6
Cl.Cl.NCC(=O)c1cnc2ncccn12 | -5.1
Cl.Cl.NCCC(=O)c1cnc2ncccn12 | 57.1
O=C(NC/C=C/c1cnc2ncccn12)c1ccc[nH]1 | 16.4
O=C(NCCC(O)c1cnc2ncccn12)c1cc(Br)c[nH]1 (stereo unspecified) | 2.2
Nc1nc(C(=O)CCNC(=O)c2cc(Br)c(Br)[nH]2)c[nH]1 | -0.94
O=C(NCCC(=O)c1cnc2ncccn12)c1cc(Br)c(Br)[nH]1 | -4.41
O=C(NCC(=O)c1cnc2ncccn12)c1cc(Br)c(Br)[nH]1 | -5.8
O=C(NCCC(=O)c1cnc2ncccn12)c1cc(Br)c[nH]1 | -8.17
O=C(NC/C=C/c1cnc2ncccn12)c1cc(Br)c(Br)[nH]1 | -0.4

system: Staphylococcus aureus; test: Antibiofilm activity against methicillin-resistant Staphylococcus aureus assessed as inhibition of biofilm formation at 50 ug/ml; format: functional; conditions: not given

Compound | inhibition at 50 µg/mL [%]
O=C(NCCC(=O)c1cnc2ncccn12)c1ccc[nH]1 | 16.9
Cl.Cl.NCC(=O)c1cnc2ncccn12 | 4.3
Cl.Cl.NCCC(=O)c1cnc2ncccn12 | -10.6
O=C(NC/C=C/c1cnc2ncccn12)c1ccc[nH]1 | -61
O=C(NCCC(O)c1cnc2ncccn12)c1cc(Br)c[nH]1 (stereo unspecified) | 8
Nc1nc(C(=O)CCNC(=O)c2cc(Br)c(Br)[nH]2)c[nH]1 | 28.3
O=C(NCCC(=O)c1cnc2ncccn12)c1cc(Br)c(Br)[nH]1 | -124
O=C(NCC(=O)c1cnc2ncccn12)c1cc(Br)c(Br)[nH]1 | -119
O=C(NCCC(=O)c1cnc2ncccn12)c1cc(Br)c[nH]1 | -127
O=C(NC/C=C/c1cnc2ncccn12)c1cc(Br)c(Br)[nH]1 | -9.7

system: Staphylococcus epidermidis; test: Antibiofilm activity against Staphylococcus epidermidis GTC 18972 assessed as inhibition of biofilm formation at 50 ug/ml; format: functional; conditions: not given

Compound | inhibition at 50 µg/mL [%]
O=C(NCCC(=O)c1cnc2ncccn12)c1ccc[nH]1 | -16.7
Cl.Cl.NCC(=O)c1cnc2ncccn12 | 28.7
Cl.Cl.NCCC(=O)c1cnc2ncccn12 | 4.2
O=C(NC/C=C/c1cnc2ncccn12)c1ccc[nH]1 | 45.9
O=C(NCCC(O)c1cnc2ncccn12)c1cc(Br)c[nH]1 (stereo unspecified) | -14.1
Nc1nc(C(=O)CCNC(=O)c2cc(Br)c(Br)[nH]2)c[nH]1 | 33.8
O=C(NCCC(=O)c1cnc2ncccn12)c1cc(Br)c(Br)[nH]1 | -9.35
O=C(NCC(=O)c1cnc2ncccn12)c1cc(Br)c(Br)[nH]1 | -2.59
O=C(NCCC(=O)c1cnc2ncccn12)c1cc(Br)c[nH]1 | -9.3
O=C(NC/C=C/c1cnc2ncccn12)c1cc(Br)c(Br)[nH]1 | -16.6

system: Staphylococcus aureus; test: Antibacterial activity against methicillin-resistant Staphylococcus aureus 1094 assessed as planktonic growth at 50 ug/ml; format: organism-based; conditions: not given

Compound | Activity [%]
O=C(NCCC(=O)c1cnc2ncccn12)c1ccc[nH]1 | 10.52
Cl.Cl.NCC(=O)c1cnc2ncccn12 | 2
Cl.Cl.NCCC(=O)c1cnc2ncccn12 | -0.9
O=C(NC/C=C/c1cnc2ncccn12)c1ccc[nH]1 | -0.8
O=C(NCCC(O)c1cnc2ncccn12)c1cc(Br)c[nH]1 (stereo unspecified) | 17.3
Nc1nc(C(=O)CCNC(=O)c2cc(Br)c(Br)[nH]2)c[nH]1 | 21.91
O=C(NCCC(=O)c1cnc2ncccn12)c1cc(Br)c(Br)[nH]1 | 6.37
O=C(NCC(=O)c1cnc2ncccn12)c1cc(Br)c(Br)[nH]1 | 18.43
O=C(NCCC(=O)c1cnc2ncccn12)c1cc(Br)c[nH]1 | 5.81
O=C(NC/C=C/c1cnc2ncccn12)c1cc(Br)c(Br)[nH]1 | -0.5

system: Pseudomonas aeruginosa; test: Antibiofilm activity against Pseudomonas aeruginosa PAO1 assessed as inhibition of biofilm formation; format: functional, organism-based; conditions: Pseudomonas aeruginosa, PAO1

Compound | IC50 [µM]
Nc1nc(C(=O)CCNC(=O)c2cc(Br)c(Br)[nH]2)c[nH]1 | 60

system: Staphylococcus aureus; test: Antibacterial activity against Staphylococcus aureus ATCC 35556 assessed as planktonic growth at 50 ug/ml; format: organism-based; conditions: not given

Compound | Activity [%]
O=C(NCCC(=O)c1cnc2ncccn12)c1ccc[nH]1 | 6.67
Cl.Cl.NCC(=O)c1cnc2ncccn12 | 6.2
Cl.Cl.NCCC(=O)c1cnc2ncccn12 | -3.3
O=C(NC/C=C/c1cnc2ncccn12)c1ccc[nH]1 | -11.5
O=C(NCCC(O)c1cnc2ncccn12)c1cc(Br)c[nH]1 (stereo unspecified) | 4.7
Nc1nc(C(=O)CCNC(=O)c2cc(Br)c(Br)[nH]2)c[nH]1 | -4.22
O=C(NCCC(=O)c1cnc2ncccn12)c1cc(Br)c(Br)[nH]1 | -6.51
O=C(NCC(=O)c1cnc2ncccn12)c1cc(Br)c(Br)[nH]1 | -4.3
O=C(NCCC(=O)c1cnc2ncccn12)c1cc(Br)c[nH]1 | 4.97
O=C(NC/C=C/c1cnc2ncccn12)c1cc(Br)c(Br)[nH]1 | 3.3

system: Staphylococcus aureus; test: Antibacterial activity against methicillin-resistant Staphylococcus aureus assessed as planktonic growth at 50 ug/ml; format: organism-based; conditions: in vitro

Compound | Activity [%]
O=C(NCCC(=O)c1cnc2ncccn12)c1ccc[nH]1 | 0.95
Cl.Cl.NCC(=O)c1cnc2ncccn12 | 7.8
Cl.Cl.NCCC(=O)c1cnc2ncccn12 | -12.6
O=C(NC/C=C/c1cnc2ncccn12)c1ccc[nH]1 | 5
O=C(NCCC(O)c1cnc2ncccn12)c1cc(Br)c[nH]1 (stereo unspecified) | 15.4
Nc1nc(C(=O)CCNC(=O)c2cc(Br)c(Br)[nH]2)c[nH]1 | 1.56
O=C(NCCC(=O)c1cnc2ncccn12)c1cc(Br)c(Br)[nH]1 | -1.91
O=C(NCC(=O)c1cnc2ncccn12)c1cc(Br)c(Br)[nH]1 | 7.17
O=C(NCCC(=O)c1cnc2ncccn12)c1cc(Br)c[nH]1 | -6.08
O=C(NC/C=C/c1cnc2ncccn12)c1cc(Br)c(Br)[nH]1 | -6.1

system: Pseudomonas aeruginosa; test: Antibacterial activity against Pseudomonas aeruginosa PAO1 assessed as planktonic growth at 50 ug/ml; format: organism-based; conditions: not given

Compound | Activity [%]
O=C(NCCC(=O)c1cnc2ncccn12)c1ccc[nH]1 | -15.89
Cl.Cl.NCC(=O)c1cnc2ncccn12 | 28.8
Cl.Cl.NCCC(=O)c1cnc2ncccn12 | 11.1
O=C(NC/C=C/c1cnc2ncccn12)c1ccc[nH]1 | 14.6
O=C(NCCC(O)c1cnc2ncccn12)c1cc(Br)c[nH]1 (stereo unspecified) | 17.1
Nc1nc(C(=O)CCNC(=O)c2cc(Br)c(Br)[nH]2)c[nH]1 | 6.46
O=C(NCCC(=O)c1cnc2ncccn12)c1cc(Br)c(Br)[nH]1 | -13.02
O=C(NCC(=O)c1cnc2ncccn12)c1cc(Br)c(Br)[nH]1 | -15.25
O=C(NCCC(=O)c1cnc2ncccn12)c1cc(Br)c[nH]1 | -14.84
O=C(NC/C=C/c1cnc2ncccn12)c1cc(Br)c(Br)[nH]1 | 11.6

system: Pseudomonas aeruginosa; test: Antibiofilm activity against Pseudomonas aeruginosa PAO1 assessed as inhibition of biofilm formation at 50 ug/ml; format: functional; conditions: not given

Compound | inhibition at 50 µg/mL [%]
O=C(NCCC(=O)c1cnc2ncccn12)c1ccc[nH]1 | 13.2
Cl.Cl.NCC(=O)c1cnc2ncccn12 | 5.6
Cl.Cl.NCCC(=O)c1cnc2ncccn12 | -1.5
O=C(NC/C=C/c1cnc2ncccn12)c1ccc[nH]1 | -2.9
O=C(NCCC(O)c1cnc2ncccn12)c1cc(Br)c[nH]1 (stereo unspecified) | 1.9
Nc1nc(C(=O)CCNC(=O)c2cc(Br)c(Br)[nH]2)c[nH]1 | 4.13
O=C(NCCC(=O)c1cnc2ncccn12)c1cc(Br)c(Br)[nH]1 | 8.66
O=C(NCC(=O)c1cnc2ncccn12)c1cc(Br)c(Br)[nH]1 | 20.8
O=C(NCCC(=O)c1cnc2ncccn12)c1cc(Br)c[nH]1 | 17
O=C(NC/C=C/c1cnc2ncccn12)c1cc(Br)c(Br)[nH]1 | -1.7

system: Staphylococcus epidermidis; test: Antibacterial activity against Staphylococcus epidermidis 1457 assessed as planktonic growth at 50 ug/ml; format: organism-based; conditions: not given

Compound | Activity [%]
O=C(NCCC(=O)c1cnc2ncccn12)c1ccc[nH]1 | -3.27
Cl.Cl.NCC(=O)c1cnc2ncccn12 | -0.6
Cl.Cl.NCCC(=O)c1cnc2ncccn12 | 3.5
O=C(NC/C=C/c1cnc2ncccn12)c1ccc[nH]1 | -8.9
O=C(NCCC(O)c1cnc2ncccn12)c1cc(Br)c[nH]1 (stereo unspecified) | 2.9
Nc1nc(C(=O)CCNC(=O)c2cc(Br)c(Br)[nH]2)c[nH]1 | -13.68
O=C(NCCC(=O)c1cnc2ncccn12)c1cc(Br)c(Br)[nH]1 | 9.93
O=C(NCC(=O)c1cnc2ncccn12)c1cc(Br)c(Br)[nH]1 | 13.8
O=C(NCCC(=O)c1cnc2ncccn12)c1cc(Br)c[nH]1 | -2.26
O=C(NC/C=C/c1cnc2ncccn12)c1cc(Br)c(Br)[nH]1 | 7.8

system: Staphylococcus epidermidis; test: Antibacterial activity against Staphylococcus epidermidis GTC 18972 assessed as planktonic growth at 50 ug/ml; format: organism-based; conditions: not given

Compound | Activity [%]
O=C(NCCC(=O)c1cnc2ncccn12)c1ccc[nH]1 | 11.45
Cl.Cl.NCC(=O)c1cnc2ncccn12 | 6.4
Cl.Cl.NCCC(=O)c1cnc2ncccn12 | 5.5
O=C(NC/C=C/c1cnc2ncccn12)c1ccc[nH]1 | 0.1
O=C(NCCC(O)c1cnc2ncccn12)c1cc(Br)c[nH]1 (stereo unspecified) | 6.5
Nc1nc(C(=O)CCNC(=O)c2cc(Br)c(Br)[nH]2)c[nH]1 | 9.62
O=C(NCCC(=O)c1cnc2ncccn12)c1cc(Br)c(Br)[nH]1 | 15.9
O=C(NCC(=O)c1cnc2ncccn12)c1cc(Br)c(Br)[nH]1 | 19.25
O=C(NCCC(=O)c1cnc2ncccn12)c1cc(Br)c[nH]1 | 1.02
O=C(NC/C=C/c1cnc2ncccn12)c1cc(Br)c(Br)[nH]1 | 9.1

system: Staphylococcus aureus; test: Antibiofilm activity against methicillin-resistant Staphylococcus aureus 1094 assessed as inhibition of biofilm formation at 50 ug/ml; format: functional; conditions: not given

Compound | inhibition at 50 µg/mL [%]
O=C(NCCC(=O)c1cnc2ncccn12)c1ccc[nH]1 | -25.1
Cl.Cl.NCC(=O)c1cnc2ncccn12 | -30.2
Cl.Cl.NCCC(=O)c1cnc2ncccn12 | -1.8
O=C(NC/C=C/c1cnc2ncccn12)c1ccc[nH]1 | 47.8
O=C(NCCC(O)c1cnc2ncccn12)c1cc(Br)c[nH]1 (stereo unspecified) | 34.3
Nc1nc(C(=O)CCNC(=O)c2cc(Br)c(Br)[nH]2)c[nH]1 | -66
O=C(NCCC(=O)c1cnc2ncccn12)c1cc(Br)c(Br)[nH]1 | 0.13
O=C(NCC(=O)c1cnc2ncccn12)c1cc(Br)c(Br)[nH]1 | -13.9
O=C(NCCC(=O)c1cnc2ncccn12)c1cc(Br)c[nH]1 | 22.5
O=C(NC/C=C/c1cnc2ncccn12)c1cc(Br)c(Br)[nH]1 | 38.9

system: Staphylococcus epidermidis; test: Antibiofilm activity against Staphylococcus epidermidis 1457 assessed as inhibition of biofilm formation at 50 ug/ml; format: functional; conditions: not given

Compound | inhibition at 50 µg/mL [%]
O=C(NCCC(=O)c1cnc2ncccn12)c1ccc[nH]1 | 1.26
Cl.Cl.NCC(=O)c1cnc2ncccn12 | 0.9
Cl.Cl.NCCC(=O)c1cnc2ncccn12 | 33
O=C(NC/C=C/c1cnc2ncccn12)c1ccc[nH]1 | 22.8
O=C(NCCC(O)c1cnc2ncccn12)c1cc(Br)c[nH]1 (stereo unspecified) | 2.6
Nc1nc(C(=O)CCNC(=O)c2cc(Br)c(Br)[nH]2)c[nH]1 | 17.8
O=C(NCCC(=O)c1cnc2ncccn12)c1cc(Br)c(Br)[nH]1 | 4.48
O=C(NCC(=O)c1cnc2ncccn12)c1cc(Br)c(Br)[nH]1 | 6.17
O=C(NCCC(=O)c1cnc2ncccn12)c1cc(Br)c[nH]1 | 2.71
O=C(NC/C=C/c1cnc2ncccn12)c1cc(Br)c(Br)[nH]1 | 18.3
